Results reported in ChEMBL document CHEMBL1141956, “New heterocyclic analogues of 4-(2-chloro-5-methoxyanilino)quinazolines as potent and selective c-Src kinase inhibitors” (Bioorg Med Chem Lett, 2005).
In brackets after ≈: the same amount, converted by molar mass.

What was measured:
[1] = target: Vascular endothelial growth factor receptor 2 (Homo sapiens, UniProt P35968); experiment: Inhibitory activity against KDR
A549 = experiment: Inhibition of A549 cell migration; format: functional, cell-based; conditions: Homo sapiens
[2] = target: Proto-oncogene tyrosine-protein kinase Src (Homo sapiens, UniProt P12931); experiment: Inhibitory activity against c-Src kinase
Chain of Proto-oncogene tyrosine-protein kinase Src (P12931 2-536 limits assumed): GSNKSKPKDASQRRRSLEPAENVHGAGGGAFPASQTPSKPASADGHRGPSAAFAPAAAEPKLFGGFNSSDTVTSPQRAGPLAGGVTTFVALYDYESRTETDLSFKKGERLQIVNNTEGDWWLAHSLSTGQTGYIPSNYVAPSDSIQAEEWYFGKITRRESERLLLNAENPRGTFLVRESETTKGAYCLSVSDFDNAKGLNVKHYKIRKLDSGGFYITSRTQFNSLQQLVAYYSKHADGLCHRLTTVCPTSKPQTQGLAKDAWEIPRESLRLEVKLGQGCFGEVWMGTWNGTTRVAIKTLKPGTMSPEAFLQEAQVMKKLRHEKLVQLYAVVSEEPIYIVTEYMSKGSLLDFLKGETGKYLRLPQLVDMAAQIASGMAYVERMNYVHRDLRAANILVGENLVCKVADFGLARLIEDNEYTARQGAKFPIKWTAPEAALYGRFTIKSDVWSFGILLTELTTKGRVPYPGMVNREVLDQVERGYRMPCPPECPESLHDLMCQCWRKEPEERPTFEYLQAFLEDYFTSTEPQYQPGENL

[3] = Cmax in rat administered with 2 mg/kg, po; format: ADME, organism-based; set-up: dose 2 mg/kg, route oral; conditions: in vivo
Rattus norvegicus = experiment: AUC(0-6 h) in rat administered with 2 mg/kg, po; format: ADME, organism-based, Plasma; set-up: time < 6 hr, dose 2 mg/kg, route oral; conditions: in vivo
[4] = Percent of unbound ligand in rat plasma; format: ADME, organism-based
[5] = Solubility in phosphate buffer at pH 7.4; format: physicochemical

Chain of Vascular endothelial growth factor receptor 2 (P35968 whole entry): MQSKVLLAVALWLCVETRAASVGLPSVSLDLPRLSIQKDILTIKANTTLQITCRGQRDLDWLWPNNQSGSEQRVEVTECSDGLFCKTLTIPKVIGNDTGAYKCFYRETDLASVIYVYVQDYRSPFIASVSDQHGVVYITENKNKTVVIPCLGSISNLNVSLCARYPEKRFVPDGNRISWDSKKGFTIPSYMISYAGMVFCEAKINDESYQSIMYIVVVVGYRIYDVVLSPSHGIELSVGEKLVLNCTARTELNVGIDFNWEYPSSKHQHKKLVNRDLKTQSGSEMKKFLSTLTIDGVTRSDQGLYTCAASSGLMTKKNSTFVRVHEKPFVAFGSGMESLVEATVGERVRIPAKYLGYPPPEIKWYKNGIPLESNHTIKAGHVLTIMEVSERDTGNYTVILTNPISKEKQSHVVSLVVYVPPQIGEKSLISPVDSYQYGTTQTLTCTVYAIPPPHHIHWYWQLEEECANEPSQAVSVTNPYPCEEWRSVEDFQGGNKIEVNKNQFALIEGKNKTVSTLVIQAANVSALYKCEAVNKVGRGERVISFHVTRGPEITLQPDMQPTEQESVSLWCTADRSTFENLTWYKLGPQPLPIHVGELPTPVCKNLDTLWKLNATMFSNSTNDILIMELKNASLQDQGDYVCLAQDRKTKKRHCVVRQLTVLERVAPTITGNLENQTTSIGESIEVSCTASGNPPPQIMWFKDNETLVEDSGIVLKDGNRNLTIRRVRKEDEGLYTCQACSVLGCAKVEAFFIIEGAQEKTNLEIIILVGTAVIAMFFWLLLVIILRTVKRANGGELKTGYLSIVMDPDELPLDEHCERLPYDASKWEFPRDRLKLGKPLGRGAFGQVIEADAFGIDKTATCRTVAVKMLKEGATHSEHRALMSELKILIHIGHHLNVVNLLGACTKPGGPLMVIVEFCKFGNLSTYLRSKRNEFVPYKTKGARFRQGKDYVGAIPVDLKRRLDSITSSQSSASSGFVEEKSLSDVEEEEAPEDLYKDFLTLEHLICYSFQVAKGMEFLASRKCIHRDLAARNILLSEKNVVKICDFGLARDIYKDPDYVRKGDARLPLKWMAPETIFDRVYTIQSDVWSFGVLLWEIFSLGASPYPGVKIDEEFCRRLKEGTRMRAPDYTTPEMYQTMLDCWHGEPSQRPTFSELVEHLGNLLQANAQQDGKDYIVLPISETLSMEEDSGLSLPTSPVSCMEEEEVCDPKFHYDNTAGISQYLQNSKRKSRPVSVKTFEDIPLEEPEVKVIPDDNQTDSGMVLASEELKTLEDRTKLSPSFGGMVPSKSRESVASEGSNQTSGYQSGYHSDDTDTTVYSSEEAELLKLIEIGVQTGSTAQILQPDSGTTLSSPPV

SMILES | IC50 [1] [nM] | IC50 (A549) [nM] | IC50 [2] [nM] | Cmax [3] [nM] | AUC (Rattus norvegicus) [uMh] | fraction unbound [4] | solubility [5] [µM]
COc1ccc(Cl)c(Nc2ncnc3cc(OCCCN4CCN(C(C)=O)CC4)cc(OC(C)C)c23)n1 | 2700 | 90 | < 4 | – | – | – | –
COc1cnc(Cl)c(Nc2ncnc3cc(OCCN4CCN(C(C)=O)CC4)cc(OC(C)C)c23)n1 | 2800 | 140 | 8 | 420 | 0.61 | – | –
COc1ncc(Cl)c(Nc2ncnc3cc(OCCN4CCN(C(C)=O)CC4)cc(OC(C)C)c23)n1 | 15000 | 270 | 15 | – | – | – | –
COc1cnc(Cl)c(Nc2ncnc3cc(OCCCN4CCOCC4)cc(OC(C)C)c23)c1 | 30 | – | 5 | – | – | – | –
COc1ccc(Cl)c(Nc2ncnc3cc(OCCCN4CCOCC4)cc(OC4CCOCC4)c23)c1 | 400 | – | 10 | – | – | – | –
COc1ccc(Cl)c(Nc2ncnc3cc(OCCCN4CCCC4)cc(OC(C)C)c23)n1 | 900 | 140 | 6 | – | – | – | –
COc1ccc(Cl)c(Nc2ncnc3cc(OCCN4CCCC4)cc(OC(C)C)c23)n1 | 3600 | 80 | 15 | – | – | – | –
COc1ccc(Cl)c(Nc2ncnc3cc(OCCCN4CCOCC4)cc(OC4CCOCC4)c23)n1 | 5500 | 160 | 5 | – | – | – | –
COc1ccc(Cl)c(Nc2ncnc3cc(OCCN4CCOCC4)cc(OC(C)C)c23)n1 | 2900 | 130 | 20 | – | – | – | –
COc1ccc(Cl)c(Nc2ncnc3cc(OCCCN4CCOCC4)cc(OC(C)C)c23)c1 | 30 | – | 40 | – | – | – | –
COc1ccc(Cl)c(Nc2ncnc3cc(OCCCN4CCOCC4)cc(OC(C)C)c23)n1 | 1900 | 90 | < 4 | – | – | – | –
COc1cc(Nc2ncnc3cc(OCCCN4CCOCC4)cc(OC(C)C)c23)c(Cl)cn1 | < 2 | – | 35 | – | – | – | –
COc1ccc(Cl)c(Nc2ncnc3cc(OCCCN4CCN(C)CC4)cc(OC(C)C)c23)n1 | 680 | 90 | < 4 | – | – | – | –
COc1ccc(Cl)c(Nc2ncnc3cc(OCCN4CCN(C(C)=O)CC4)cc(OC(C)C)c23)n1 | 6300 | 90 | 10 | 310 | 0.64 | 0.08 | 43 (≈ 22.1 µg/mL)
COc1cnc(Cl)c(Nc2ncnc3cc(OCCCN4CCOCC4)cc(OC4CCOCC4)c23)c1 | 30 | 290 | 7 | – | – | – | –
COc1ccc(Cl)c(Nc2ncnc3cc(OCCN4CCN(C)CC4)cc(OC(C)C)c23)n1 | 570 | 170 | 7 | – | – | – | –
COc1cc(Nc2ncnc3cc(OCCCN4CCOCC4)cc(OC4CCOCC4)c23)c(Cl)cn1 | 80 | – | 400 | – | – | – | –
